According to patent EP4570805A1, “TRICYCLIC COMPOUNDS AND MEDICAL USE THEREOF” (Chia Tai Tianqing Pharmaceutical Group Co., Ltd., priority 2022, dated 2024):

Each compound was assayed on Capan-1 cells (assay: Inhibitory activity for Capan-1 cell proliferation (CCK-8)). Conditions: 5 days incubation.
Type: cell-based
Method: Capan-1 cells in a well-growing state were collected into a centrifuge tube, adjusted to a cell density of 1.5 × 10^4 cells/mL, and inoculated onto a 96-well plate (100 µL/well). […] Meanwhile, a control was set. After 5 days of incubation in the cell incubator, the assay reagent CCK-8 (manufacturer: Dojindo Laboratories, Beijing; 10 µL/well) was added. After 4 h of incubation in the cell incubator, the absorbance was measured at 450 nm on a PerkinElmer Envision microplate reader. A four-parameter analysis was performed, a dose-response curve was fitted, and IC50 was calculated.

| Compound | IC50 |
| --- | --- |
| CC(c1cccnc1N)N1c2nc(OC[C@@]34CCCN3C[C@H](F)C4)nc3c(F)c(-c4cc(N)cc(Cl)c4C(F)(F)F)nc(c23)OC[C@@H]1C (single isomer, unassigned) [Example 64] | < 100 nM |
| C#Cc1c(F)ccc2cc(O)cc(-c3nc4c5c(nc(OC[C@@H]6C[C@@H](F)CN6C)nc5c3F)N(C(C)c3cccnc3N)[C@@H](C)CO4)c12 (single isomer, unassigned) [Example 147] | < 100 nM |
| C#Cc1c(F)ccc2cc(O)cc(-c3nc4c5c(nc(OCC6(CN7CCOCC7)CC6)nc5c3F)N(C(C)c3cccnc3N)[C@@H](C)CO4)c12 (single isomer, unassigned) [Example 70] | < 100 nM |
| C#Cc1c(F)ccc2cccc(-c3nc4c5c(nc(OC[C@@H]6CCCN6C)nc5c3F)N(C(C)c3cccnc3N)[C@@H](C)CO4)c12 (single isomer, unassigned) [Example 88] | < 100 nM |
| C#Cc1cccc2cccc(-c3nc4c5c(nc(OC[C@@]67CCCN6C[C@H](F)C7)nc5c3F)N(C(C)c3cccnc3N)[C@@H](C)CO4)c12 (single isomer, unassigned) [Example 131] | < 100 nM |
| [2H]C([2H])(Oc1nc2c3c(nc(-c4cc(O)cc5ccc(F)c(C#C)c45)c(F)c3n1)OC[C@H](C)N2C(C)c1cccnc1N)[C@@]12CCCN1C[C@H](F)C2 (single isomer, unassigned) [Example 72] | < 100 nM |
| C#Cc1c(F)ccc2cc(O)cc(-c3nc4c5c(nc(OC[C@@H]6COCCN6C)nc5c3F)N(C(C)c3cccnc3N)[C@@H](C)CO4)c12 (single isomer, unassigned) [Example 92] | < 100 nM |
| C#Cc1c(F)ccc2cccc(-c3nc4c5c(nc(OCC67CCCN6CC(F)C7)nc5c3F)N(C(C)c3cccnc3N)C(C)CO4)c12 (single isomer, unassigned) [Example 48] | < 100 nM |

Same assay, conditions: Homo sapiens, CAPAN-1, 120 h, 5 days incubation

| Compound | IC50 |
| --- | --- |
| C#Cc1c(F)ccc2cc(O)cc(-c3nc4c5c(nc(OCCCN6CCCCC6)nc5c3F)N(C(C)c3cccnc3N)[C@@H](C)CO4)c12 (single isomer, unassigned) [Example 142] | < 100 nM |
| CC(c1cccnc1N)N1c2nc(OC[C@@]34CCCN3C[C@H](F)C4)nc3c(F)c(-c4cc(N)cc(Cl)c4C(F)(F)F)nc(c23)OC[C@@H]1C (single isomer, unassigned) [Example 63] | < 100 nM |
| CC(c1cccnc1N)N1c2nc(OC[C@@]34CCCN3C[C@H](F)C4)nc3c(F)c(-c4cccc5ccccc45)nc(c23)OC[C@@H]1C (single isomer, unassigned) [Example 59] | < 100 nM |
| C#Cc1c(F)ccc2cc(O)cc(-c3nc4c5c(nc(OCC(C)(C)OC)nc5c3F)N(C(C)c3cccnc3N)[C@@H](C)CO4)c12 (single isomer, unassigned) [Example 77] | < 100 nM |
| C#Cc1c(F)ccc2cc(O)cc(-c3nc4c5c(nc(OC[C@@H](C)N(C)C)nc5c3F)N(C(C)c3cccnc3N)[C@@H](C)CO4)c12 (single isomer, unassigned) [Example 152] | < 100 nM |
| CC(c1cccnc1N)N1c2nc(OC[C@@]34CCCN3C[C@H](F)C4)nc3c(F)c(-c4cccc5ccc(F)c(F)c45)nc(c23)OC[C@@H]1C (single isomer, unassigned) [Example 120] | < 100 nM |
| C#Cc1c(F)ccc2cc(O)cc(-c3nc4c5c(nc(OC)nc5c3F)N(C(C)c3cccnc3N)[C@@H](C)CO4)c12 (single isomer, unassigned) [Example 65] | < 100 nM |
| C#Cc1c(F)ccc2cc(O)cc(-c3nc4c5c(nc(OCC(C)CN(C)C)nc5c3F)N(C(C)c3cccnc3N)[C@@H](C)CO4)c12 (single isomer, unassigned) [Example 144] | < 100 nM |
| C#Cc1c(F)ccc2cc(O)cc(-c3nc4c5c(ncnc5c3F)N(C(C)c3cccnc3N)[C@@H](C)CO4)c12 (single isomer, unassigned) [Example 89] | < 100 nM |
| C#Cc1c(F)ccc2cc(O)cc(-c3nc4c5c(nc(OC[C@H](C)OC)nc5c3F)N(C(C)c3cccnc3N)[C@@H](C)CO4)c12 (single isomer, unassigned) [Example 73] | < 100 nM |
| C#Cc1c(F)ccc2cc(O)cc(-c3nc4c5c(nc(OC[C@@H](C)OC)nc5c3F)N(C(C)c3cccnc3N)[C@@H](C)CO4)c12 (single isomer, unassigned) [Example 75] | < 100 nM |
| C#Cc1c(F)ccc2cc(O)cc(-c3nc4c5c(nc(OCCN6CCN(C)CC6)nc5c3F)N(C(C)c3cccnc3N)[C@@H](C)CO4)c12 (single isomer, unassigned) [Example 168] | < 100 nM |
| C#Cc1c(F)ccc2cc(O)cc(-c3nc4c5c(nc(OCc6nccn6C)nc5c3F)N(C(C)c3cccnc3N)[C@@H](C)CO4)c12 (single isomer, unassigned) [Example 93] | < 100 nM |
| Cc1cccc(-c2nc3c4c(nc(OCC56CCCN5CC(F)C6)nc4c2F)N(C(C)c2cccnc2N)C(C)CO3)c1C(F)(F)F (single isomer, unassigned) [Example 55] | < 100 nM |
| C#Cc1c(F)ccc2cc(O)cc(-c3nc4c5c(nc(OC[C@@]67CCCN6C[C@H](F)C7)nc5c3F)N(CC(F)F)C(C)CO4)c12 (stereo partly shown) [Example 50] | < 100 nM |
| CC(c1cccnc1N)N1c2nc(OC[C@@]34CCCN3C[C@H](F)C4)nc3c(F)c(-c4ccc(F)c5sc(N)c(C#N)c45)nc(c23)OC[C@@H]1C (single isomer, unassigned) [Example 82] | < 100 nM |
| CC(c1cccnc1N)N1c2nc(OC[C@@]34CCCN3C[C@H](F)C4)nc3c(F)c(-c4ccc(F)c5sc(N)c(C#N)c45)nc(c23)OC[C@@H]1C (stereo partly shown) [Example 81] | < 100 nM |
| C#Cc1c(F)ccc2cc(O)cc(-c3nc4c5c(nc(OC[C@@H]6COCCN6C)nc5c3F)N(C(C)c3cccnc3N)[C@@H](C)CO4)c12 (single isomer, unassigned) [Example 91] | < 100 nM |

| Compound | IC50 |
| --- | --- |
| C#Cc1c(F)ccc2cc(O)cc(-c3nc4c5c(nc(OCCCN6CCOCC6)nc5c3F)N(C(C)c3cccnc3N)[C@@H](C)CO4)c12 (single isomer, unassigned) [Example 154] | < 100 nM |
| C#Cc1c(F)ccc2cc(O)cc(-c3nc4c5c(nc(OC[C@@H]6CN(C)CCN6C)nc5c3F)N(C(C)c3cccnc3N)[C@@H](C)CO4)c12 (single isomer, unassigned) [Example 109] | < 100 nM |
| C#Cc1c(F)ccc2cc(O)cc(-c3nc4c5c(nc(OCCCN6CCN(C)CC6)nc5c3F)N(C(C)c3cccnc3N)[C@@H](C)CO4)c12 (single isomer, unassigned) [Example 170] | < 100 nM |
| Cc1cccc(-c2nc3c4c(nc(OC[C@@H]5CCCN5C)nc4c2F)N(C(C)c2cccnc2N)[C@@H](C)CO3)c1C(F)(F)F (single isomer, unassigned) [Example 160] | < 100 nM |
| C#Cc1c(F)ccc2cc(O)cc(-c3nc4c5c(nc(OC[C@@H](C)N6CCC6)nc5c3F)N(C(C)c3cccnc3N)[C@@H](C)CO4)c12 (single isomer, unassigned) [Example 174] | < 100 nM |
| CC(c1cccnc1N)N1c2nc(OC[C@@]34CCCN3C[C@H](F)C4)nc3c(F)c(-c4ccccc4N(C)C)nc(c23)OC[C@@H]1C (single isomer, unassigned) [Example 57] | < 100 nM |
| C#Cc1c(F)ccc2cc(O)cc(-c3nc4c5c(nc(OCCN6CCCCC6)nc5c3F)N(C(C)c3cccnc3N)[C@@H](C)CO4)c12 (single isomer, unassigned) [Example 166] | < 100 nM |
| Cc1cccc(-c2nc3c4c(nc(OC[C@@]56CCCN5C[C@H](F)C6)nc4c2F)N(C(C)c2cccnc2N)[C@@H](C)CO3)c1N(C)C (single isomer, unassigned) [Example 128] | < 100 nM |
| CC(c1cccnc1N)N1c2nc(OC[C@@]34CCCN3C[C@H](F)C4)nc3c(F)c(-c4ccccc4C(F)(F)F)nc(c23)OC[C@@H]1C (single isomer, unassigned) [Example 61] | < 100 nM |
| C#Cc1c(F)ccc2cc(O)cc(-c3nc4c5c(nc(OCC67CCCN6CC(F)C7)nc5c3F)N(C3CC3)C(C)CO4)c12 (single isomer, unassigned) [Example 45] | < 100 nM |
| CC(c1cccnc1N)N1c2nc(OC[C@@]34CCCN3C[C@H](F)C4)nc3c(F)c(-c4cccc(F)c4N(C)C)nc(c23)OC[C@@H]1C (single isomer, unassigned) [Example 126] | < 100 nM |
| C#Cc1c(F)ccc2cc(O)cc(-c3nc4c5c(nc(OC[C@@]67CCCN6C[C@H](F)C7)nc5c3F)N(C(C)c3cccnc3N)[C@H](C)CO4)c12 (stereo partly shown) [Example 41] | < 100 nM |
| C#Cc1c(F)ccc2cc(O)cc(-c3nc4c5c(nc(OCC6(N)CC6)nc5c3F)N(C(C)c3cccnc3N)[C@@H](C)CO4)c12 (single isomer, unassigned) [Example 99] | < 100 nM |
| CC(c1cccnc1N)N1c2nc(OC[C@@H]3CCCN3C)nc3c(F)c(-c4ccc(F)c5sc(N)c(C#N)c45)nc(c23)OC[C@@H]1C (single isomer, unassigned) [Example 158] | < 100 nM |
| CC(c1cccnc1N)N1c2nc(OC[C@@]34CCCN3C[C@H](F)C4)nc3c(F)c(-c4ccc(F)c5sc(N)nc45)nc(c23)OC[C@@H]1C (single isomer, unassigned) [Example 116] | < 100 nM |
| C#Cc1c(F)ccc2cc(O)cc(-c3nc4c5c(nc(OCCN6CCOCC6)nc5c3F)N(C(C)c3cccnc3N)[C@@H](C)CO4)c12 (single isomer, unassigned) [Example 136] | < 100 nM |
| C#Cc1c(F)ccc2cc(O)cc(-c3nc4c5c(nc(OCCCN6CCCC6)nc5c3F)N(C(C)c3cccnc3N)[C@@H](C)CO4)c12 (single isomer, unassigned) [Example 132] | < 100 nM |
